Reference: patent publication US20170066717A1, “NEW PHENYLAZETIDINECARBOXYLATE OR -CARBOXAMIDE COMPOUNDS” (INVENTIVA, priority 2014, published 2017)

What was measured:
NURR-1/RXRα = target: T1, NURR-1/RXRα (Homo sapiens, UniProt P19793); assay: Transactivation test, NURR-1-Gal4/RXRα, luciferase reporter in Cos-7 cells; type: cell-based; settings: for Emax: COS-7, induction level relative to reference XCT0135908 at 2×10^−5 M (=100%), read-out: hNurr1_RXRaFL Emax (%); for EC50: Cos-7 cells, NURR-1-Gal4/RXRα, luciferase reporter, read-out: hNurr1_RXRaFL EC50
T1 construct: expressed in transfected cells; host or cells: Cos-7 cells

[1] = tested on: dopaminergic neurons of primary culture of rat embryo mesencephalon treated with MPP+; assay: Neuroprotection in primary culture of rat embryo mesencephalon treated with MPP+ (count of tyrosine hydroxylase expressing cells); type: cell-based; settings: recombinant human BDNF 10 ng/mL = 100%, 2 days with MPP+
Description: Another in vitro test was carried out with the compounds according to the invention, for the purpose of verifying that the molecules indeed have the expected neuroprotective effect in vitro.
The compounds were tested in a model of primary culture of rat embryo mesencephalon treated with 1-methyl-4-phenylpyridinium (MPP+), which is the active metabolite of 1-methyl-4-phenyl-1,2,3,6-tetrahydropyridine (MPTP). MPP+ enters into dopananergic neurons via the dopamine transporter and causes the death of these dopaminergic neurons. The following protocol was used.
Gestating female rats (15 days of gestation) were euthanized and the rat embryos were removed. The mesencephalons were removed. The tissue was then dissociated mechanically and by using trypsin. The cells collected after centrifugation were distributed into 96-well plates and left to stand for 5 days. The culture conditions made it possible to obtain a cell layer composed of neurons (dopaminergic and others) and astrocytes. On the 6th day, the cells were optionally treated with MPP+ in the presence or absence of test compound. After 2 days of incubation, the cells were fixed and various cell labellings were carried out; staining of the nuclei with the Hoechst fluorescent label and immunolabelling of tyrosine hydroxylase. The cells expressing tyrosine hydroxylase were counted using an image analyzer coupled to an optical microscope.
Recombinant human BDNF trophic factor (10 ng/mL) was used as reference. The activities of the compounds are given as percentages of activity relative to the BDNF reference, the activity of which is arbitrarily defined as being equal to 100%.

NURR-1/RXRγ = target: T2, NURR-1/RXRγ (Homo sapiens, UniProt P48443); assay: Transactivation test, NURR-1-Gal4/RXRγ, luciferase reporter in Cos-7 cells; type: cell-based; settings: for Emax: COS-7, induction level relative to reference XCT0135908 at 2×10^−5 M (=100%), read-out: hNurr1_RXRgFL Emax (%); for EC50: Cos-7 cells, NURR-1-Gal4/RXRγ, luciferase reporter, read-out: hNurr1_RXRgFL EC50
T2 construct: expressed in transfected cells; host or cells: Cos-7 cells

[2] = Plasma pharmacokinetics in mice after oral administration; type: in vivo; settings: mouse, male C57/Bl6 mice, oral 10 mg/kg
Description: Three series of in vivo tests were carried out with compounds representative of the invention, for the purpose of determining their pharmacokinetic plasma profile and their brain penetration.
1. Study of the Plasma Phannacokinectis in Mice After Oral Administration
Male C57/B16 mice (25-30 g) originating from the establishment Janvier, Le Genest-St-Isle, France were used for this study (9 mice per dose). The animals were fed with standard feed for rodents (Purina Mills, St. Louis, Mo.), placed in cages and subjected to light/darkness cycles of 12 h/12 h, the temperature of the room being maintained at 22±2° C. and the humidity level at 55±10%.
The mice were not deprived food before the administration. Water was provided at will throughout the study. The test compound was admistered orally at 10 mg/kg. For the oral administration at 10 mg/kg, the animals were green, by gavage, 10 mL/kg of a suspension of the test compound, prepared in 1% methylcellulose, 400 cps/0.1% Poloxamer 188/water.
The animals were sacrificed under anesthesia at times 15 min, 30 min, 1 h, 3 h and 7 h after gavage. The blood was collected at each time, and from each animal sacrificed 0.5 mL of blood collected in 1.5 mL tubes containing 20 μL of evaporated anticoagulant (solution of sodium heparinate at 1000 IU/mL) was centrifuged at 4500 g for 3 min in order to obtain approximately 200 μL of plasma. The plasma was divided up into 2 aliquots of 70 μL minimum, which were stoted at −20° C. until they were treated by protein precipitation and then analysis by liquid chromatography coupled to tandem mass spectrometry (LC-MS/MS) in order to quantify the compound tested.
The pharmacokinetic plasma parameters in the mice after oral administration were determined using a non-compartmental approach with the Phoenix WinNonLin software. The area under the curve (AUC0-1) was determined bv the log-linear trapezoidal method. The tesults are brought together in the following table.

T2 sequence (P48443 whole entry, the tested form may be a part): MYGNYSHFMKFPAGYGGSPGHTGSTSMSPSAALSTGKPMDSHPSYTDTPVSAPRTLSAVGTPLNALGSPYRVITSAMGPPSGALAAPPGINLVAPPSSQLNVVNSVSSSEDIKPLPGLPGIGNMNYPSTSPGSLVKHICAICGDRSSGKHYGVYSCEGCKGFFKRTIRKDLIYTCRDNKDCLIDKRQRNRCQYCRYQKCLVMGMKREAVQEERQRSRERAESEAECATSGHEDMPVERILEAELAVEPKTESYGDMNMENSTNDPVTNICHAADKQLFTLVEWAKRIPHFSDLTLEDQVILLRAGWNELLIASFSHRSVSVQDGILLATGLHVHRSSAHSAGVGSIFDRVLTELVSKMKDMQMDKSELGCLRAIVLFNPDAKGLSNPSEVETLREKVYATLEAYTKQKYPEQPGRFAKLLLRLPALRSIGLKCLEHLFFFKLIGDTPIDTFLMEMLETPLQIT
T2 sequence (P43354 whole entry partner, the tested form may be a part): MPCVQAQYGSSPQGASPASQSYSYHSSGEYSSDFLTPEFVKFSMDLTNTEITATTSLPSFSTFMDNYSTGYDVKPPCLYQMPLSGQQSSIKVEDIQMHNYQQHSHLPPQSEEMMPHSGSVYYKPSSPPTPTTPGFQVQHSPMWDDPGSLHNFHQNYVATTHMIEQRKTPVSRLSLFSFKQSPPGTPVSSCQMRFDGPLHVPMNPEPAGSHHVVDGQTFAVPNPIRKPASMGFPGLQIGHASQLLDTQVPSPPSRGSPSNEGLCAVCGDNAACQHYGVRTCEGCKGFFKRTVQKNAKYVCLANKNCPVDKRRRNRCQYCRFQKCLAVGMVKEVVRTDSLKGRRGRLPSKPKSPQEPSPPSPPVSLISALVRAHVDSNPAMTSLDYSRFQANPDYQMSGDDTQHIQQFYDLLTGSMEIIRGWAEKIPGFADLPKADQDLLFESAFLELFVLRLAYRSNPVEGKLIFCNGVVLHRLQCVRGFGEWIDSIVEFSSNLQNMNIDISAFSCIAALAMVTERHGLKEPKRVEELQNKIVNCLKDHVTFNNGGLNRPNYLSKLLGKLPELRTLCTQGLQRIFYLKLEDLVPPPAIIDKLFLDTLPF
T2 sequence (P04386 1-147 partner limits assumed): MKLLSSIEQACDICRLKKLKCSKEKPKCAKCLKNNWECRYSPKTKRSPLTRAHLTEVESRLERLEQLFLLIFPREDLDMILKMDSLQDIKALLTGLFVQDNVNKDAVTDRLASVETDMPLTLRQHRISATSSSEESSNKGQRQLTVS
T1 sequence (P19793 whole entry, the tested form may be a part): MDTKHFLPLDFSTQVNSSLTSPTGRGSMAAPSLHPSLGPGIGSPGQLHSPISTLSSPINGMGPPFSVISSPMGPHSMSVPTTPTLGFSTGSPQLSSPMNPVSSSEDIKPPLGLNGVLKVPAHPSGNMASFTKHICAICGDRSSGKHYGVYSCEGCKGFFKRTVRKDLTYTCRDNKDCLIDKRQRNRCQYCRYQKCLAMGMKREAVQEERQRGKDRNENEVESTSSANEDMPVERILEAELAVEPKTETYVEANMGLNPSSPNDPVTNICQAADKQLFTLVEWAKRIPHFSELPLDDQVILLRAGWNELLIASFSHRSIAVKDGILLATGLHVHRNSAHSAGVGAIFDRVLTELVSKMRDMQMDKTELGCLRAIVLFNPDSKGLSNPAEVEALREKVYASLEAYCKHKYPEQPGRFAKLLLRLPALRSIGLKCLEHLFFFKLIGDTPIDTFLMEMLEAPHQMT
T1 sequence (P43354 whole entry partner, the tested form may be a part): as the sequence (P43354 whole entry partner, the tested form may be a part) above
T1 sequence (P04386 1-147 partner limits assumed): as the sequence (P04386 1-147 partner limits assumed) above

In the case of COCCNC(=O)C1CN(c2cccc(-n3cc(C)c4cc(C(F)(F)F)ccc43)c2)C1 [Example 173, N-(2-methoxyethyl)-1-[3-[3-methyl-5-(trifluoromethyly)indol-1-yl]phenyl]azetidine-3-carboxamide], the Emax (NURR-1/RXRα) is reported as 103%, the EC50 (NURR-1/RXRα) is reported as < 1 nM and the “percentage of activity relative to the BDNF reference” value ([1]; compound 1 μM) is reported as 18%. For the same compound, the “percentage of activity relative to the BDNF reference” value ([1]; compound 10 μM) was 72%, the Emax (NURR-1/RXRγ) was 102% and the EC50 (NURR-1/RXRγ) was 5 nM.

For CCOc1ccc(C(F)(F)F)cc1-c1cccc(N2CC(C(=O)O)C2)c1 [Example 109, 1-[3-[2-ethoxy-5-(trifluoromethyl)phenyl]phenyl]azetidine-3-carboxylic acid], the Emax (NURR-1/RXRα) was 86%, the EC50 (NURR-1/RXRα) was 39 nM and the “percentage of activity relative to the BDNF reference” value ([1]; compound 1 μM) was 145%. The “percentage of activity relative to the BDNF reference” value ([1]; compound 10 μM) was 147%, the Emax (NURR-1/RXRγ) was 112% and the EC50 (NURR-1/RXRγ) was 67 nM.

In the case of Cc1cn(-c2cccc(N3CC(C(=O)NCCCO)C3)c2)c2ccc(C(F)(F)F)cc12 [Example 154, N-(3-hydroxypropyl)-1-[3-[3-methyl-5-(trifluoromethyl)indol-1-yl]phenyl]azetidine-3-carboxamide], the Emax (NURR-1/RXRα) is reported as 111%, the EC50 (NURR-1/RXRα) is reported as < 1 nM and the “percentage of activity relative to the BDNF reference” value ([1]; compound 1 μM) is reported as 67%. For the same compound, the “percentage of activity relative to the BDNF reference” value ([1]; compound 10 μM) was 105%, the Emax (NURR-1/RXRγ) was 104% and the EC50 (NURR-1/RXRγ) was 3 nM.

For CC1(C)CNc2c(cc(C(F)(F)F)cc2-c2cccc(N3CC(C(=O)O)C3)c2)O1 [Example 61, 1-[3-[2,2-dimethyl-7-(trifluoromethyl)-3,4 dihydro-1,4-benzoxazin-5-yl]phenyl]azetidine-3-carboxylic acid], the Emax (NURR-1/RXRα) was 91%, the EC50 (NURR-1/RXRα) was 8 nM and the “percentage of activity relative to the BDNF reference” value ([1]; compound 1 μM) was 85%. The “percentage of activity relative to the BDNF reference” value ([1]; compound 10 μM) was 106%, the Emax (NURR-1/RXRγ) was 107% and the EC50 (NURR-1/RXRγ) was 15 nM.

In the case of Cc1cc(-c2cc(C(F)(F)F)cc3c2NCC(C)(C)O3)cc(N2CC(C(=O)O)C2)c1 [Example 64, 1-[3-[2,2,-dimethyl-7-(triflouormethyl)3,4-dihydro-1,4-benzoxazin-5-yl]-5-methylphenyl]azetidine-3-carboxylic acid], the Emax (NURR-1/RXRα) is reported as 99%, the EC50 (NURR-1/RXRα) is reported as 4 nM and the “percentage of activity relative to the BDNF reference” value ([1]; compound 1 μM) is reported as 81%. For the same compound, the “percentage of activity relative to the BDNF reference” value ([1]; compound 10 μM) was 92%, the Emax (NURR-1/RXRγ) was 109% and the EC50 (NURR-1/RXRγ) was 4 nM.

In the case of Cc1cn(-c2cccc(N3CC(C(=O)NCCOCCO)C3)c2)c2ccc(C(F)(F)F)cc12 [Example 158, N-[2-(2-hydroxethoxy)ethyl]-1-[3-[3-methyl-5-(trifluoromethyl)indol-1-yl]phenyl]azetidine-3-carboxamide], the Emax (NURR-1/RXRα) is reported as 92%, the EC50 (NURR-1/RXRα) is reported as 2 nM and the “percentage of activity relative to the BDNF reference” value ([1]; compound 1 μM) is reported as 54%. The “percentage of activity relative to the BDNF reference” value ([1]; compound 10 μM) was 77%, the Emax (NURR-1/RXRγ) was 125% and the EC50 (NURR-1/RXRγ) was 4 nM.

With CN(C)S(=O)(=O)c1cn(-c2cccc(N3CC(C(=O)O)C3)c2)c2ccc(C(F)(F)F)cc12 [Example 136, 1-[3-[3-(dimethylsulfamoyl)-5-(trifluoromethyl)indol-1-yl]phenyl]azetidine-3-carboxylic acid] the Emax (NURR-1/RXRα) was 128%, the EC50 (NURR-1/RXRα) was 22 nM and the “percentage of activity relative to the BDNF reference” value ([1]; compound 1 μM) was 49%. The “percentage of activity relative to the BDNF reference” value ([1]; compound 10 μM) was 86%, the Emax (NURR-1/RXRγ) was 121% and the EC50 (NURR-1/RXRγ) was 55 nM.

With Cc1cn(-c2cccc(N3CC(C(=O)NCCC#N)C3)c2)c2ccc(C(F)(F)F)cc12 [Example 159, N-(2-cyanoethyl)-1-[3-[3-methyl-5-(trifluoromethyl)indol-1-yl]phenyl]azetidine-3-carboxamide] the Emax (NURR-1/RXRα) was 115%, the EC50 (NURR-1/RXRα) was 3 nM and the “percentage of activity relative to the BDNF reference” value ([1]; compound 1 μM) was 73%. For the same compound, the “percentage of activity relative to the BDNF reference” value ([1]; compound 10 μM) was 101%, the Emax (NURR-1/RXRγ) was 110% and the EC50 (NURR-1/RXRγ) was 6 nM.

In the case of Cc1cn(-c2cccc(N3CC(C(=O)NCCc4c[nH]cn4)C3)c2)c2ccc(C(F)(F)F)cc12 [Example 155, N-[2-(1H-imidazol-4-yl)ethyl]-1-[3-[3-methyl-5-(trifluoromethyl)indol-1yl]phenyl]azetidine-3-carboxamide], the Emax (NURR-1/RXRα) is reported as 123%, the EC50 (NURR-1/RXRα) is reported as 4 nM and the “percentage of activity relative to the BDNF reference” value ([1]; compound 1 μM) is reported as 49%. For the same compound, the “percentage of activity relative to the BDNF reference” value ([1]; compound 10 μM) was 94%, the Emax (NURR-1/RXRγ) was 116% and the EC50 (NURR-1/RXRγ) was 5 nM.

With CC(C)Cc1cn(-c2cccc(N3CC(C(=O)O)C3)c2)c2ccc(C(F)(F)F)cc12 [Example 125, 1-[3-[3-isobutyl-5-(trifluoromethyl)indol-1-yl]phenyl]azetidine-3-carboxylic acid] the Emax (NURR-1/RXRα) was 152%, the EC50 (NURR-1/RXRα) was 4 nM and the “percentage of activity relative to the BDNF reference” value ([1]; compound 1 μM) was 86%. The “percentage of activity relative to the BDNF reference” value ([1]; compound 10 μM) was 107%, the Emax (NURR-1/RXRγ) was 162% and the EC50 (NURR-1/RXRγ) was 2 nM.

With Cc1cc(N2CC(C(=O)O)C2)cc(-n2cc(C)c3nc(C(F)(F)F)ccc32)c1 [Example 58, 1-[3-methyl-5-[3-methyl;-5-(trifluoromethyl)pyrrol[3,2,-b]pyridine-1-yl]phenyl]azetidine-3-carboxylic acid] the Emax (NURR-1/RXRα) was 118%, the EC50 (NURR-1/RXRα) was 7 nM and the “percentage of activity relative to the BDNF reference” value ([1]; compound 1 μM) was 80%. For the same compound, the “percentage of activity relative to the BDNF reference” value ([1]; compound 10 μM) was 79%, the Emax (NURR-1/RXRγ) was 102% and the EC50 (NURR-1/RXRγ) was 13 nM.

In the case of CCCC1CN(c2cccc(N3CC(C(=O)O)C3)c2)c2ccc(C(F)(F)F)cc2O1 (stereo not shown) [Example 117, 1-[3-[2-propyl-7-(tirfluormethyl)2,3-dihydro-1,4-benzoxazin-4-yl]phenyl]azetidine-3-carboxylic acid], the Emax (NURR-1/RXRα) is reported as 103%, the EC50 (NURR-1/RXRα) is reported as 9 nM and the “percentage of activity relative to the BDNF reference” value ([1]; compound 1 μM) is reported as 75%. The “percentage of activity relative to the BDNF reference” value ([1]; compound 10 μM) was 84%, the Emax (NURR-1/RXRγ) was 125% and the EC50 (NURR-1/RXRγ) was 4 nM.

For CCC1CN(c2cccc(N3CC(C(=O)O)C3)c2)c2ccc(C(F)(F)F)cc2O1 (stereo not shown) [Example 114, 1-[3-[2-ethyl-7-(trifluoromethyl)-2,3-dihydro-1,4-benzoxazin-4-yl]phenyl]azetidine-3-carboxylic acid], the Emax (NURR-1/RXRα) was 139%, the EC50 (NURR-1/RXRα) was 9 nM and the “percentage of activity relative to the BDNF reference” value ([1]; compound 1 μM) was 101%. For the same compound, the “percentage of activity relative to the BDNF reference” value ([1]; compound 10 μM) was 89%, the Emax (NURR-1/RXRγ) was 150% and the EC50 (NURR-1/RXRγ) was 11 nM.

With Cc1cn(-c2cccc(N3CC(C(=O)NCCCn4ccnc4)C3)c2)c2ccc(C(F)(F)F)cc12 [Example 160] the Emax (NURR-1/RXRα) was 115%, the EC50 (NURR-1/RXRα) was 15 nM and the “percentage of activity relative to the BDNF reference” value ([1]; compound 1 μM) was 54%. The “percentage of activity relative to the BDNF reference” value ([1]; compound 10 μM) was 79%, the Emax (NURR-1/RXRγ) was 124% and the EC50 (NURR-1/RXRγ) was 31 nM.

Compound CCC1COc2cc(C(F)(F)F)ccc2N1c1cccc(N2CC(C(=O)O)C2)c1 (stereo not shown) [Example 217, 1-[3-[3-ethyl-7-(trifluoromethyl)-2,3-dihydro-1,4-benzoxazin-4-yl]phenyl]azetidine-3-carboxylic acid] has an Emax (NURR-1/RXRα) of 109%, an EC50 (NURR-1/RXRα) of 14 nM and a melting point of 61 to 74 °C. The AUC ([2]; sampling 15 min to 7 h, log-linear trapezoidal method, read-out: AUCplasma) was 30300 ng·h/mL, the Cmax ([2]; suspension in 1% methylcellulose/0.1% Poloxamer 188) was 10200 ng/mL and the Emax (NURR-1/RXRγ) was 125%. It also gave an EC50 (NURR-1/RXRγ) of 46 nM.
